According to paper PMC3106419 (Bioconjugate chemistry, 2009):

Target: T1, human P2Y14 receptor (Homo sapiens, UniProt Q15391)
T1 sequence (Q15391 1-338): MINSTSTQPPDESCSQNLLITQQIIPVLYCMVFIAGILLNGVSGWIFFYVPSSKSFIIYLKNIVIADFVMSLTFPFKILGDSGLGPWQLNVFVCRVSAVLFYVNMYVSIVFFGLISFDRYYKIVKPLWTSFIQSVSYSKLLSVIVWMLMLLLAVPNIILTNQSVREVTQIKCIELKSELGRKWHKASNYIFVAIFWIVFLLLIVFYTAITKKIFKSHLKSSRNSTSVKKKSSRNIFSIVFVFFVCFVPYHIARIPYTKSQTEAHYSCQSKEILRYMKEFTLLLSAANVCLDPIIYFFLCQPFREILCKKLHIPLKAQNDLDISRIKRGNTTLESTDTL
Test: Inhibition of forskolin-stimulated cyclic AMP accumulation in P2Y14-HEK293 cells
Assay type: cell-based
Details: for relative potency at the P2Y14 receptor: comparator named in the value; for fold more potent than monomer 3a: potency ratio vs ethylenediamine analogue 3a at hP2Y14 receptor; for fold more potent than native agonist UDPG 1: potency ratio vs compound 1 at hP2Y14 receptor

Row | Molecule | relative potency at the P2Y14 receptor | further results
1 | G3-(UDPGA)4.3 [compound 8] | considerably less potent than 9, but similar in potency to 1 | 
2 | G3-(UDPGA)20.1-(Biotin)4.9 [compound 13] | essentially as potent as 9 | 
3 | G5.5-(UDPGA-ethylenediamine)29.9 [compound 11] |  | fold more potent than monomer 3a: more than 800 fold
4 | G3-(UDPGA)20.1-(DTPA)4.5 [compound 15] | essentially as potent as 9 | 
5 | G2.5-(UDPGA-ethylenediamine)17.3 [compound 10] |  | fold more potent than monomer 3a: more than 800 fold
6 | G3-(UDPGA)20.1-(AlexaFluor488)2.3 [compound 14] |  | fold more potent than native agonist UDPG 1: 7 fold; fold less potent than conjugate 9 (potency ratio vs compound 9 at hP2Y14 receptor): 17 fold
7 | G6-(UDPGA)147 [compound 12] | significantly more potent than 9 | 
8 | UDPGA-ethylenediamine [3a] | considerably less potent | 
9 | G3-(UDPGA)20.1 [compound 9] |  | fold more potent than native agonist UDPG 1: approximately 100 fold
10 | O=C(O)[C@H]1O[C@H](OP(=O)(O)OP(=O)(O)OC[C@H]2O[C@@H](n3ccc(=O)[nH]c3=O)[C@H](O)[C@@H]2O)[C@H](O)[C@@H](O)[C@@H]1O [compound 2, uridine-5′-diphosphoglucuronic acid, reference compound] | approximately equipotent to 1 | 
